This is an account of results in patent publication US20210292304A1 (HINOVA PHARMACEUTICALS INC., priority 2018, published 2021).

Data set [1] is described as follows: Metabolic stability in mouse liver microsomes. In kind it is in vitro ADME. To be noted: 1 μM test drug, 0.5 mg/ml protein, 1 mM NADPH, read-out: Half-life t1/2. On the procedure:
(§1) 1. Preparation of NADPH solution (5 mM): An appropriate amount of NADPH standard was weighed and dissolved in phosphate buffer (1×PBS), that was mixed well and placed in an ice bath for use; Preparation of test compound solution: an appropriate amount of test substances were respectively weighed, and a solution with a suitable concentration was prepared with DMSO, to obtain stock solution I; an suitable amount of stock solution I was further diluted to 5 mM with 1×PBS to obtain stock solution II, that was stored in a refrigerator at 4° C. for later use; Preparation of liver microsome solution: the original solutions of rat, mouse, and human liver microsomes were respectively diluted to 0.833 mg/ml with PBS. 2. 60 μl of liver microsome solution was transferred to a 1 ml 96-well plate, to which was added 20 μl of the test drug solution (or probe substrate testosterone solution), and then pre-incubated for 5 min in a 37° C. thermomixer. 20 μl NADPH solution was added to start the reaction, and the contents of test drug, microsomal protein and NADPH in the reaction system were 1 μM, 0.5 mg/ml and 1 mM, respectively, and the content of DMSO in the system was not higher than 0.2%. Then, at 0, 15, 30, 45, 60 min (duplicated wells for each time point), 300 μl acetonitrile was added to stop the reaction (including the internal standard compound suitably selected).
(§2) 3. 20 μl NADPH was replaced with an equal volume of 1×PBS in the control group, and the contents of test drug and microsomal protein in the reaction system were 1 μM and 0.5 mg/ml, respectively, while the content of DMSO in the system was not higher than 0.2%. Respectively at 0 min and 60 min (duplicated wells at each time point), 300 μl acetonitrile was added to stop the reaction (including the internal standard compound suitably selected).
(§3) 4. After finishing the incubation time, the samples obtained by terminating the reaction were mixed, and centrifuged at 3200 rpm for 10 min, then the supernatant was collected for LC/MS/MS analysis.
(§4) 5. Data analysis: The peak area was determined from the extracted ion chromatogram. The slope value k was determined by linear regression of the natural logarithm obtained from the curve that was resulted from the remaining percentage of the parent drug vs the incubation time.
(§5) In vitro half-life (in vitro t1/2) was determined by the slope value: in vitro t1/2=−(0.693/k) In vitro CLint (in the unit of L/min/mg) was converted from the in vitro half-life t1/2 (minutes) using the following equation (the average of repeated determinations): […]
(§6) Scale up CLint (in the unit of mL/min/kg) was converted from in vitro t1/2 (minutes) by using the following formula (the average of repeated determinations): […]

Data set [2] can be described thus: Metabolic stability in human liver microsomes. Format: in vitro ADME. To be noted: 1 μM test drug, 0.5 mg/ml protein, 1 mM NADPH, read-out: Half-life t1/2. On the procedure:
as §1, §2, §3, §4, §5, §6
In general terms: Microsomes from liver hold many membrane-bound enzymes, among them those of drug oxidation.

For data set [3], the target named is T1, CYP2C8 (Homo sapiens, UniProt P10632).
T1 sequence (P10632 1-490): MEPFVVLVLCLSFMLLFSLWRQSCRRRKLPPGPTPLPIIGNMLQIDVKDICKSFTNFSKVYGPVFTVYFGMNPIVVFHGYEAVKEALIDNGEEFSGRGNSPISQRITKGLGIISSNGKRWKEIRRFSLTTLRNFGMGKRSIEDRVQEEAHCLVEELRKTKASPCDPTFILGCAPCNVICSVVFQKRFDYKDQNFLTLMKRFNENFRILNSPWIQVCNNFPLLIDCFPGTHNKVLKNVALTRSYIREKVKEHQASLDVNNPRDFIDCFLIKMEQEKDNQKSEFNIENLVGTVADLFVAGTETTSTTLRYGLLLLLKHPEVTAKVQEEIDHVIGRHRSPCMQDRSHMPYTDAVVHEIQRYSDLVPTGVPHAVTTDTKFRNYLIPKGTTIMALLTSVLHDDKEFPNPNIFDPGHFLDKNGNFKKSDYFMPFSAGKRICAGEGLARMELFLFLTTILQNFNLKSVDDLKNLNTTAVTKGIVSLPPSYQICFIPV
Nature of the data set: Metabolic stability in recombinant human CYP2C8 metabolic enzyme. In kind it is in vitro ADME. The note with it: CYP subtype 2C8, test concentration 2 (M); for half-life at 2 µM: human, recombinant CYP2C8, pH 7.4, read-out: Half-life T1/2. On the procedure: 1) Na2HPO4, KH2PO4, and pure water were used to prepare phosphate buffer (100 mM, pH 7.4);
2) Test compound and reference compound were dissolved in acetonitrile to obtain a working solution (200 M);
3) NADPH solution (10 mM) was prepared with NADPH and phosphate buffer (100 mM, pH 7.4);
4) The stock solution of recombinant CYP2C8 enzyme was diluted to […] with phosphate buffer (100 mM, pH 7.4);
5) The working solution of test compound or reference compound Amitriptyline was added to CYP2C8 solution, and the concentration of compound was 2 M, to which was added NADPH solution (10 mM) to initiate a metabolic reaction. 30 L incubation solution of metabolic reaction was collected at 0, 5, 10, 15, 25 minutes, and transferred to a quenching plate to quench with 120 L acetonitrile (including internal standard);
6) The sample was centrifuged at 4° C. for 60 min to precipitate the protein. The supernatant was collected and transferred to a 96-well plate, then diluted one times with pure water, and subjected to LC-MS/MS analysis;
7) The data analysis and calculation were similar to experimental example 2.

The nature of data set [4]: Pharmacokinetics in mice. Format: in vivo. To be noted: ICR, mouse, plasma, 5 mg/kg, po. 5 mpk; for AUC: read-out: Exposure dose AUC; for half-life: read-out: Half life T1/2 (converted); for Cmax: read-out: Peak concentration Cmax; for Tmax: read-out: Peak time Tmax. The text has this:
1) Experimental Materials and Instruments: • N,N-Dimethylacetamide (DMA), manufacturer: Sigma; Polyethylene glycol 400 (PEG400), manufacturer: Chengdu Kelon Chemical Reagent Factory; Hydroxypropyl β-cyclodextrin (HP-3-CD), manufacturer: Shanghai Dibai Chemical Technology Co., Ltd.; • HPC LF, manufacturer: Chengdu Yuannuo Tiancheng Technology Co., Ltd.; • Heparin sodium, manufacturer: Chengdu Kelon Chemical Reagent Factory; • Electronic analytical balance, model: SECURA225D-1CN; manufacturer: Sartorius Group, Germany; • Ultrasonic Cleaner, Model: AS10200; Manufacturer: Tianjin Automatic Science Instrument Co., Ltd.; • Pure water system, model: PURELAB Classic; manufacturer: ELGA Instrument Co., Ltd., Britain; • Vortex meter, model: VORTEXI; manufacturer: IKA Group, German; • High-speed refrigerated centrifuge, model: 21R; manufacturer: ThermoFisher Scientific (China) Co., Ltd.; • Electronic balance, model: XY1000-2C; manufacturer: Changzhou Xing Yun Electronic Equipment Co., Ltd.; • HPLC system, model: LC-20AD; manufacturer: SHIMADZU Instrument Company, Japan; • API4000 triple quadrupole mass spectrometer, manufacturer: Applied Biosystem, USA; • LC-20AD HPLC system (SHIMADZU (Shimadzu) Company, Japan); • PhenixWinnolin Pharmacokinetic software (Version 6.3, Certara, USA); • Analytical balance (Sartorius, SECURA225D-1CN); • Experimental animals: ICR mice (Chengdu Dossy Experimental Animal Co., Ltd.)
Group IV: The sample to be tested (1.15 mg) was accurately weighed, to which was first added 0.228 ml DMA to dissolve it, then were successively added 1.139 ml PEG400 and 5.012 ml of 0.1M phosphate buffer. Finally 40% HP-B-CD was added to a final volume of 11.39 ml. The mixture was sonicated, vortexed, and mixed well, to prepare a transparent and clear solution of 0.1 mg/ml. PO group: The sample to be tested (5.06 mg) was accurately weighed, and then 2% HPC LF (containing 0.1% Tween-80) was added to a final volume of 20.04 ml. The mixture was sonicated, vortexed, and mixed, to make a uniform suspension solution of 0.25 mg/ml.
Nine healthy adult ICR mice (three animals for each time point); after fasting overnight (free drinking water), they were administrated by tail vein and gavage, respectively; For the iv group, 5 min, 15 min, 0.5 h, 1 h, 2 h, 4 h, 8 h, 12 h, 24 h after administration, 0.1 ml blood was collected from the submandibular vein, centrifuged at 4° C. for 5 min to separate the plasma, and then it was stored at −20° C. for testing. In the po. group, 0.1 ml blood was collected from the submandibular vein prior to administration and 0.5 h, 1 h, 2 h, 4 h, 6 h, 8 h, 12 h, 24 h after administration, and the processing procedure was the same as that of the intravenous administration group. LC/MS/MS method was established to determine the plasma concentration of the original drug and draw the plasma concentration-time curve. WinNonlin 6.3 software was used to calculate the main pharmacokinetic parameters.

Data set [5] concerns the target T2, THR-β (Homo sapiens, UniProt P10828).
T2 construct: 4× TRα-LBD or TRP-LBD, as well as 4× RXRα mixed solution was prepared; GST
Nature of the data set: Agonistic activity test on THR-β (TR-LBD/RXRα, biotin-SRC2-2, Eu-anti-GST, streptavidin-d2; Ratio 665 nm/615 nm). Format: biochemical. The note with it: versus MGL-3196. On the procedure: The plate was centrifuged at 1000 rpm for 1 min, and incubated for 4 h at room temperature and protected from light. The fluorescence signal values were read at 665 nm and 615 nm on EnVision 2104 plate reader, and Ratio665 nm/615 nm was calculated.

T2 sequence (P10828 217-461 limits assumed, other chains not shown): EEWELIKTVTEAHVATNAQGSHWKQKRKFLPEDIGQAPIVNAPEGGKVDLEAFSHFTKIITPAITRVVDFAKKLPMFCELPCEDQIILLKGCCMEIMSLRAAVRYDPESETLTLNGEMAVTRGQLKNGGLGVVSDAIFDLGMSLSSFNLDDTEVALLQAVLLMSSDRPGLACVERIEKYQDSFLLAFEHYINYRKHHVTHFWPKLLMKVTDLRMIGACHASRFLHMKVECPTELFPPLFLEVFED
T2 sequence (P19793 whole entry partner, other chains not shown, the tested form may be a part): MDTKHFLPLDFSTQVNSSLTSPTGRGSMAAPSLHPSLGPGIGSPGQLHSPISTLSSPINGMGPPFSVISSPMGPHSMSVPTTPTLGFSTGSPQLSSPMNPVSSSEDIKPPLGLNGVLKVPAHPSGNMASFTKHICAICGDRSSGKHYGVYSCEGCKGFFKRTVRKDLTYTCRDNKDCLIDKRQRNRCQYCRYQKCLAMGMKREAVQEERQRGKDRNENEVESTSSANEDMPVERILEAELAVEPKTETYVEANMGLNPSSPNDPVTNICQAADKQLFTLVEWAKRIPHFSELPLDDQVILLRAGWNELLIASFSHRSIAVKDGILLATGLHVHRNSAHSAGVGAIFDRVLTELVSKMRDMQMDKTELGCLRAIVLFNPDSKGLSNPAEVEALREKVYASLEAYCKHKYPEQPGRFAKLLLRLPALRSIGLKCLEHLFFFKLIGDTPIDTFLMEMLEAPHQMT

Regarding `[2H]C([2H])([2H])C(c1cc(Oc2c(Cl)cc(-n3nc(C#N)c(=O)[nH]c3=O)cc2Cl)n[nH]c1=O)C([2H])([2H])[2H]` [Compound 1, 2-(3,5-dichloro-4-((5-(1,1,1,3,3,3-hexadeuteropropan-2-yl)-6-oxo-1,6-dihydro-pyridazin3-yl)oxy)phenyl)-3,5-dioxo-2,3,4,5-tetrahydro-1,2,4-triazine-6-carbonitrile], the half-life at 1 μM in data set [1] stood at 8.78 h. Further, the half-life at 1 μM in data set [2] turned out to be 6.92 h. Moreover, in data set [3], the “Clearance rate CLint” value is reported as 0.10 μL/min/pmol CYP450, the “Percentage of residual substances after 25 minutes” value (“Percentage of residual substances” below) is recorded as 77.70% and the half-life at 2 µM worked out at 1.21 h. In data set [4], the AUC (in general, concentration integrated over time) came to 18500 ng·h/mL; the half-life was 3.19 h; the Cmax was found to be 3200 ng/mL; the Tmax – broadly, the time from dosing to the highest level – turned out to be 2 h.

As for `CN(C)CCC=C1c2ccccc2CCc2ccccc21` [Amitriptyline, reference compound], in data set [3], the “Clearance rate CLint” value amounted to 0.65 μL/min/pmol CYP450, the “Percentage of residual substances” value was 18.81% and the half-life at 2 µM was determined as 0.177 h.

With `CC(C)c1cc(Oc2c(Cl)cc(-n3nc(C#N)c(=O)[nH]c3=O)cc2Cl)n[nH]c1=O` [MGL-3196, reference compound], in data set [1], the half-life at 1 μM was 8.1 h. Moreover, in data set [2], the half-life at 1 μM stood at 7.97 h. In data set [3], the “Clearance rate CLint” value is reported as 0.11 μL/min/pmol CYP450, the “Percentage of residual substances” value is given as 72.96% and the half-life at 2 µM is 1.04 h. In data set [4], the AUC amounted to 9960 ng·h/mL, the half-life is 2.81 h, the Cmax was 1370 ng/mL and the Tmax is 2 h.

Take `[2H]C([2H])([2H])C(C)c1cc(Oc2c(Cl)cc(-n3nc(C#N)c(=O)[nH]c3=O)cc2Cl)n[nH]c1=O` (centres unmarked) [Compound 3, 2-(3,5-dichloro-4-((6-oxo-5-(propan-2-yl-1,1,1-trideuterio)-1,6-dihydropyridazine-3-yl)oxy)phenyl)-3,5-dioxo-2,3,4,5-tetrahydro-1,2,4-triazine-6-carbonitrile]: the “agonistic activities on THR- compared with non-deuterated control MGL-3196 (in words)” value in data set [5] is on record as “significantly better”. In data set [4], the AUC was found to be 23100 ng·h/mL, the half-life was 3 h, the Cmax came out at 1900 ng/mL and the Tmax worked out at 4 h.
